Values joined by “and” are separate entries in the source; they are usually repeats but may differ in a detail not shown here. Equal values may be shown once.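 Growth conditions: 96-well plates. Treatment: test compound, 48 hours, 5 concentrations. Analysis: linear interpolation between bracketing concentrations; unreached endpoints set to highest concentration. GI50 marks 50% less growth.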 Active and inactive are the calls of the source. No stated cut-off is given here; in the data, active = GI50 up to about 1.1 µM and inactive = higher. Starred links: 1 amine or outer side, 2 acyl side, 3 side chain; linkers in the order of their positions; H or OH if unused. Non-standard residues stand in square brackets, D forms with d. Residues, ends and D or L forms follow the SMILES beside them. X4 = C[C@H](N[*:1])C(=O)C(C)(C)C(=O)[*:2]; Hmpa(2S,3S) = CC[C@H](C)[C@H](O)C(=O)O; NMeY = CN[C@@H](Cc1ccc(O)cc1)C(=O)O; NMeL = CN[C@@H](CC(C)C)C(=O)O; NMeV = CN[C@H](C(=O)O)C(C)C; βAla = NCCC(=O)O
Legend:
Assay in all cases: NCI-60 cell line screen, 48 h
T47D = system: T47D
DLD-1 = system: DLD-1
KM-20L2 = system: KM-20L2
M19-MEL = system: M19-MEL
LXFL 529 = system: LXFL 529
XF498 = system: XF498
SNB-78 = system: SNB-78
HOP-18 = system: HOP-18

`CC[C@@H]1/C=C/C=C/C[C@H](C)[C@@H](O)[C@](C)(O)C(=O)[C@H](C)[C@@H](O)[C@H](C)C(=O)[C@H](C)[C@@H](O)[C@H](C)/C=C/C(=O)O[C@H]2[C@@H](C)[C@@H](CC1)O[C@]1(O[C@H](CC(C)O)[C@H](C)CC1=O)[C@@H]2C` (some centres not stated) was tested, and the GI50 (T47D) was < 0.0025 µM (active).

`O=C(O)CCC(=O)Nc1ccc2ccccc2c1` was tested, and the GI50 (T47D) was > 100 µM (inactive).

`COc1cc(OC)c(/C=C/c2cnc3ccccc3n2)c(OC)c1` was tested, and the GI50 (T47D) was > 10 µM (inactive).

In the case of `C1C2CC3CC1CC(Nc1nc(NC45CC6CC(CC(C6)C4)C5)nc(NC45CC6CC(CC(C6)C4)C5)n1)(C2)C3`, the GI50 (T47D) is reported as 72.1 µM (inactive).

For `COc1cc(C(=O)Oc2c(C#N)sc3c2c(=O)n(-c2ccccc2)c(=S)n3-c2ccccc2)cc(OC)c1OC`, the GI50 (T47D) was 25.5 µM (inactive).

In the case of `COc1cc(OC)c2c(=O)cc(-c3ccc(OC)c(OC)c3OC)oc2c1`, the GI50 (DLD-1) is reported as > 100 µM (inactive), the GI50 (KM-20L2) is reported as > 100 µM (inactive) and the GI50 (M19-MEL) is reported as > 100 µM (inactive). The GI50 (LXFL 529) was 89.5 µM (inactive) and the GI50 (XF498) was > 100 µM (inactive).

`Cc1cc2ncn(CC(=O)O)c2cc1C` was tested, and the GI50 (T47D) was > 100 µM (inactive).

`COc1ccccc1/C=C(/C)[N+](=O)[O-]` was tested, and the GI50 (T47D) was 1.44 µM (inactive) and 1.04 µM (active).

With `CC(CSC(=N)N)C(N)=O` (configuration not stated) the GI50 (T47D) was > 100 µM (inactive).

`O=C(O)CCN1CCN(CCC(=O)O)CCN(CCC(=O)O)CC1` was tested, and the GI50 (T47D) was > 100 µM (inactive).

In the case of `CCOP(=O)(OCC)C(c1ccc(F)cc1)N(C(=O)NC(F)(F)F)c1cccc(C(F)(F)F)c1` (configuration not stated), the GI50 (T47D) is reported as 83.9 µM (inactive).

`COc1cc(C2C3=C(COC3=O)Oc3cc4c(cc32)OCO4)ccc1OC(C)=O` (configuration not stated) was tested, and the GI50 (T47D) was 0.565 µM (active).

In the case of `[N-]=[N+]=CC(=O)OC1Cc2ccccc2C1`, the GI50 (T47D) is reported as > 100 µM (inactive).

With `N#Cc1nnn(C2CCCCC2)c1O` the GI50 (T47D) was > 100 µM (inactive).

For `Cc1c2c(OCC3CCCCO3)nn(C)c(=O)c2c(C)n1-c1ccccc1` (configuration not stated), the GI50 (T47D) was 22.1 µM (inactive).

For `Cc1nc2ccccc2c(=O)n1NC(=O)c1ccc([N+](=O)[O-])cc1`, the GI50 (T47D) was > 100 µM (inactive).

For `NCP(=O)(O)OCC(=O)O`, the GI50 (SNB-78) was > 100 µM (inactive), the GI50 (DLD-1) was > 100 µM (inactive) and the GI50 (HOP-18) was > 100 µM (inactive). The GI50 (LXFL 529) was > 100 µM (inactive) and the GI50 (XF498) was > 100 µM (inactive).

In the case of `CCc1ccc2oc(-c3cc(O)c(-c4nc5cc(CC)ccc5o4)cc3O)nc2c1`, the GI50 (T47D) is reported as > 100 µM (inactive).

For `O=C(CN1CCOCC1)CC(O)(C(F)(F)F)C(F)(F)F`, the GI50 (T47D) was 42.4 µM (inactive).

For `COC(=O)c1c(C(=O)OC)c2ccccn2c1-c1cc(C)cc2c1C(=O)C=CC2=O`, the GI50 (T47D) was 4.21 µM (inactive).

For `CN1CCOC(C(NC(=O)c2ccccc2)c2ccccc2)C1=O` (configuration not stated), the GI50 (SNB-78) was > 100 µM (inactive), the GI50 (DLD-1) was > 100 µM (inactive) and the GI50 (KM-20L2) was > 100 µM (inactive). For the same molecule, the GI50 (HOP-18) was > 100 µM (inactive) and the GI50 (M19-MEL) was > 100 µM (inactive).

For `COC(=O)C1c2cc3c(cc2C(OC2OC(C)C(OC)C(C)(OC)C2OC)CC1(C)O)C(=O)c1c(O)cc2c(c1C3=O)OC1OC2(C)C(O)C([N+](C)(C)[O-])C1O` (configuration not stated), the GI50 (T47D) was 0.13 µM (active).

In the case of `COC(=O)c1cc2c(c3c1CC(Cc1ccccc1)C3=O)CCC2` (configuration not stated), the GI50 (T47D) is reported as 25.5 µM (inactive).

For `NC(=O)C(=O)C(c1ccccc1)S(=O)(=O)Cc1ccccc1` (configuration not stated), the GI50 (T47D) was > 100 µM (inactive).

With `CC(=O)C1C(=O)C(C(C)=O)C2C3C=CC(C3)C12` (configuration not stated) the GI50 (T47D) was > 100 µM (inactive).

In the case of `Cc1cccc2c1CC1(C2)Cc2c(C)cccc2C1=O` (configuration not stated), the GI50 (T47D) is reported as 44.8 µM (inactive).

`COc1ccc(/C=C2\CC3C4CC=C5C[C@@H](N6CCCC6)CC[C@]5(C)C4CC[C@]3(C)[C@H]2O)cc1OC` (some centres not stated) was tested, and the GI50 (T47D) was 12.2 µM (inactive).

For `CC[C@H](C)[C@@H]1OC(=O)CCNC(=O)[C@@H](C)NC(=O)C(C)(C)C(=O)[C@H](C)NC(=O)[C@H](Cc2ccc(OC)cc2)N(C)C(=O)[C@H](C(C)C)N(C)C(=O)CNC(=O)[C@H](CC(C)C)N(C)C(=O)CNC1=O` (cyclo(G[NMeL]G[NMeV][NMeY](Me)[X4][dA][βAla][Hmpa(2S,3S)])), the GI50 (T47D) was 2.19 µM (inactive).

In the case of `O=C(O)CSc1cc(-c2ccccc2)nc2ccccc12`, the GI50 (T47D) is reported as 57.9 µM (inactive).

For `C[n+]1c2ccccc2c(C(=O)Nc2ccc(S(=O)(=O)Nc3ccnn3-c3ccccc3)cc2)c2ccccc21`, the GI50 (T47D) was > 100 µM (inactive).

In the case of `CC(C)(C)C1=C(Br)C(F)(C(C)(C)C)OP1(=O)c1ccccc1` (configuration not stated), the GI50 (T47D) is reported as 15.9 µM (inactive).

For `CCCC(=O)c1ccc2c(ccc(=O)n2C)c1`, the GI50 (DLD-1) was > 100 µM (inactive), the GI50 (KM-20L2) was > 100 µM (inactive) and the GI50 (HOP-18) was 88.1 µM (inactive). The GI50 (M19-MEL) was > 100 µM (inactive) and the GI50 (LXFL 529) was 84.5 µM (inactive).

For `Brc1ccc2[nH]cc(-c3nc(-c4c[nH]c5ccccc45)cs3)c2c1`, the GI50 (T47D) was 3.68 µM (inactive).

In the case of `COC(=O)[C@H](Cc1c[nH]c2ccccc12)NP(=O)(O)OC[C@H]1O[C@@H](n2cc(C)c(=O)[nH]c2=O)C[C@@H]1N=[N+]=[N-]`, the GI50 (T47D) is reported as > 100 µM (inactive).

In the case of `O=C(O)c1cnc(-n2[nH]c3c(c2=O)CCCC3)[nH]c1=O`, the GI50 (T47D) is reported as > 100 µM (inactive).

`CCOC(=O)C(NC(=O)c1cccc(Cl)c1)(Nc1cccc(C)c1)C(F)(F)F` (configuration not stated) was tested, and the GI50 (T47D) was 19 µM (inactive).

`C=C(Cl)[C@](Cl)(CBr)CC[C@@H](Br)C(C)(C)Cl` [HALOMON] was tested, and the GI50 (T47D) was 3.18 µM (inactive).

With `COc1ccc(NC(=S)c2ccoc2C)cc1CC(=O)OC(C)C` the GI50 (T47D) was 24.8 µM (inactive).

`c1ccc(-c2cc(-c3ccccc3)nc(-c3ccncc3)c2)cc1` was tested, and the GI50 (T47D) was > 100 µM (inactive).

`COc1ccc2c([nH]c3cc(O)c(C)cc32)c1C=O` was tested, and the GI50 (SNB-78) was > 25 µM (inactive), the GI50 (DLD-1) was > 25 µM (inactive) and the GI50 (KM-20L2) was > 25 µM (inactive). The GI50 (M19-MEL) was > 25 µM (inactive), the GI50 (LXFL 529) was > 25 µM (inactive) and the GI50 (XF498) was > 25 µM (inactive).

For `CN(C)CC1CCCC(CN(C)C)C1OC(=O)c1ccccc1` (configuration not stated), the GI50 (SNB-78) was > 100 µM (inactive), the GI50 (DLD-1) was > 100 µM (inactive) and the GI50 (KM-20L2) was > 100 µM (inactive). For the same molecule, the GI50 (HOP-18) was > 100 µM (inactive), the GI50 (M19-MEL) was > 100 µM (inactive) and the GI50 (LXFL 529) was > 100 µM (inactive).

For `C1=C2C3=[N+](CCCC3)CC2Cc2ccsc21` (configuration not stated), the GI50 (T47D) was 22.8 µM (inactive).

`CN(C)c1ccc(/C=C/c2nc3ccccc3s2)cc1` was tested, and the GI50 (T47D) was > 100 µM (inactive).

With `O=C(NC1CCCCCC1)C1C(=O)N(C2CCCCCC2)C(=O)/C1=N\O` (configuration not stated) the GI50 (SNB-78) was 34.3 µM (inactive), the GI50 (DLD-1) was 44.1 µM (inactive) and the GI50 (KM-20L2) was 23.1 µM (inactive). For the same molecule, the GI50 (HOP-18) was 48.9 µM (inactive), the GI50 (M19-MEL) was 28.2 µM (inactive) and the GI50 (LXFL 529) was 31.8 µM (inactive).

For `COc1cc(C(c2c(O)c3ccccc3oc2=O)c2c(O)c3ccccc3oc2=O)ccc1O`, the GI50 (T47D) was 17.9 µM (inactive).

In the case of `Cc1ccccc1-n1c(=O)nc2n(-c3ccc(C(C)(C)C)cc3)c3ccccc3cc-2c1=O`, the GI50 (T47D) is reported as 26.2 µM (inactive).

`COc1cc2ccc1OCc1cccc(n1)COc1ccc(cc1OC)/C=N\c1ccc(cc1)-c1ccc(cc1)/N=C\2` was tested, and the GI50 (T47D) was > 100 µM (inactive).

For `CC(=O)Oc1c(C)c2c(O)c3c1C1=C(OCOC1=C(C)C3=O)/C(C)=C/C(C)(O)C(O)C(C)C(O)C1C(=O)OC(C(C)C1O)C(C)(O)/C=C\C=C(C)C(=O)N2` (configuration not stated), the GI50 (T47D) was > 100 µM (inactive).

`Cc1c(C#N)c(=N)oc2ccccc12` was tested, and the GI50 (T47D) was 75.7 µM (inactive).

With `CCn1c2c(c3ccccc31)C(c1ccccc1)CC1C(=O)N(c3ccccc3)C(=O)C21` (configuration not stated) the GI50 (SNB-78) was 36.8 µM (inactive), the GI50 (DLD-1) was 74 µM (inactive) and the GI50 (KM-20L2) was > 100 µM (inactive). For the same molecule, the GI50 (M19-MEL) was > 100 µM (inactive), the GI50 (LXFL 529) was 42.8 µM (inactive) and the GI50 (XF498) was 15.8 µM (inactive).

`N#CC1(C#N)C=CC(=C2OCC3CCCN23)C=C1` (configuration not stated) was tested, and the GI50 (SNB-78) was > 100 µM (inactive), the GI50 (DLD-1) was > 100 µM (inactive) and the GI50 (KM-20L2) was > 100 µM (inactive). For the same molecule, the GI50 (HOP-18) was > 100 µM (inactive), the GI50 (M19-MEL) was > 100 µM (inactive) and the GI50 (LXFL 529) was > 100 µM (inactive).

`Cc1cccc(N2CCN(S(=O)(=O)c3ccc(Cl)cc3)C2=N)c1C` was tested, and the GI50 (T47D) was > 100 µM (inactive).

With `COc1ccccc1/C=C1\C(=O)N(C(=O)c2ccc(NC(C)=O)cc2)N=C1C` the GI50 (SNB-78) was > 100 µM (inactive), the GI50 (DLD-1) was > 100 µM (inactive) and the GI50 (M19-MEL) was > 100 µM (inactive). The GI50 (XF498) was > 100 µM (inactive).
